Laboratory results published in patent US8299214B2 (priority 2006, dated 2012).
Read-outs that look alike come from different tables or passages of the source. Residues, ends and D or L forms follow the SMILES beside them. No end group written: not given here. *: point of attachment. Stearoyl = CCCCCCCCCCCCCCCCCC(=O)*

How the values were obtained:
[1] = test system: influenza virus A/Puerto Rico/8/34 strain (H1N1)
[2] = test system: influenza virus A/Aichi/2/68 strain (H3N2)
[3] = test system: hemagglutinin (immobilized H3N2); assay: Biacore binding of synthetic peptides to H3N2 immobilized on Sensor Chip CM5; design: species or system influenza virus type A A/Wuhan/359/95 (H3N2); settings: for order of binding strength to hemagglutinin: Biacore; for relative value of resonance (amount of binding) with A-1 taken as 1: peptide concentration 200 μM
[4] = target: binding of hemagglutinin (H3) to GM3; assay: ELISA inhibition of GM3-hemagglutinin interaction using GM3 cast membrane; design: species or system influenza virus
Method: Inhibition of the interaction between GM3 and hemagglutinin (HA) was evaluated by ELISA using the GM3 cast membrane (Kazuhiro Nagata and Hiroshi Handa, “Seibutsu Busshitsu Sogosayo no Real-time Kaiseki Jikkenho—BIACORE wo Chushin Ni (Real-time Analysis Experimental Procedures on Biological Substance Interaction—Focusing on BIOCORE), Springer-Verlag Inc., Tokyo, 1998)”). […] In addition, it has been reported from an evaluation by NMR that the binding constant between hemagglutinin and free sialyl lactose is in the order of mM (e.g. α (2, 3)-sialyllactose K0=3.2 mM). Therefore, the results presented in this Example were largely consistent with the inhibition constant of the peptides reported by Inoue. Moreover, the results presented in this Example are in the same order of magnitude as, or one order smaller than, the inhibition constant of A-1 or the binding constant obtained with sialyl lactose.

[5] = target: hemagglutinin (HA), ether extract of type A subtype H1 A/PR/8/34 (H1N1) (Influenza A virus, UniProt P03452)
hemagglutinin (HA), ether extract of type A subtype H1 A/PR/8/34 (H1N1), sequence (P03452 18-565): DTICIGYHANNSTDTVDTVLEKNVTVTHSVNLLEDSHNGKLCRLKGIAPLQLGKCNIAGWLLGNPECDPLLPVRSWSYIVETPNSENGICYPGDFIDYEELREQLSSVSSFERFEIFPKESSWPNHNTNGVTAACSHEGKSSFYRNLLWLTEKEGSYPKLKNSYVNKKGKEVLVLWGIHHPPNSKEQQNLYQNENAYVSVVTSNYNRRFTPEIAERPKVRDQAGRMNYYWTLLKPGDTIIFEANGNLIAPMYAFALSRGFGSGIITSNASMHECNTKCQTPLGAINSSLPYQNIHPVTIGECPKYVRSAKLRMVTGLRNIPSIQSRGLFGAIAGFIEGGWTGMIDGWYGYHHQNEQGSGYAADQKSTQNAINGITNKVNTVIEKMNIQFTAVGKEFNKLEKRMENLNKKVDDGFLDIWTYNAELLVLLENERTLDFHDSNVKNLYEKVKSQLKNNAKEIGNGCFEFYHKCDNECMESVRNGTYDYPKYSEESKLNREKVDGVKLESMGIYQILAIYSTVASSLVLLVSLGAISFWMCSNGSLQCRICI

[6] = test system: hemagglutinin (HA), ether extract of type A subtype H3 A/Wuhan/359/95 (H3N2); assay: Phage ELISA, binding of peptide-presenting phages to immobilized hemagglutinin (H3N2); design: species or system influenza virus type A A/Wuhan/359/95 (H3N2)
[7] = influenza virus A/Puerto Rico/8/34 strain
[8] = influenza virus A/Aichi/2/68 strain
[9] = read-out: IC50(μM) H1, Table 4, MDCK cells, plaque assay, H1N1
[10] = read-out: IC50(μM) H3, Table 4, MDCK cells, plaque assay, H3N2

Row | Molecule | inhibition of H1N1 influenza virus infection (in words) ([1]; MDCK cells, plaque assay) | IC50 [1, 7] [µM] | inhibition of H3N2 influenza virus infection (in words) ([2]; MDCK cells, plaque assay) | IC50 [2, 8] [µM] | also measured
1 | CCCCCCCCCCCCCCCCCC(=O)N[C@@H](C)C(=O)N[C@@H](CCCNC(=N)N)C(=O)N[C@@H](CC(C)C)C(N)=O [C18-s2(1-3), C18-ARL] | unable to inhibit infection | > 100 | unable to inhibit infection | > 100 | 
2 | CCCCCCCCCCCCCCCCCC(=O)N[C@@H](C)C(=O)N[C@@H](CCCNC(=N)N)C(=O)N[C@@H](CC(C)C)C(=O)N1CCC[C@H]1C(N)=O [C18-s2(1-4), C18-ARLP] (Stearoyl-ARLP-NH2) | more strongly than C18-S2 peptide | 0.9 | as strongly as, or more strongly than, C18-S2 peptide | 21 | 
3 | AEGDDPAKAAFDSLQ-NH2 [pVIII, reference compound] |  |  |  |  | order of binding strength to hemagglutinin [3]: s-2>e-1>A-1>pVIII
4 | CCCCCCCCCCCCCCCCCC(=O)N[C@@H](CCCNC(=N)N)C(=O)N1CCC[C@H]1C(=O)N[C@@H](CC(C)C)C(=O)N[C@@H](CCCNC(=N)N)C(=O)N[C@@H](C)C(N)=O [C18-s2(r1-5), C18-RPLRA] (Stearoyl-RPLRA-NH2) | more strongly than C18-s2 (r1-8) | 0.55 | more strongly than C18-s2 (r1-8) | 0.94 | 
5 | CCCCCCCCCCCCCCCCCC(=O)N[C@@H](C)C(=O)N[C@@H](CCCNC(=N)N)C(=O)N[C@@H](CC(C)C)C(=O)N[C@@H](CO)C(=O)N1CCC[C@H]1C(=O)N[C@H](C(=O)N[C@@H](CCSC)C(=O)N[C@H](C(=O)N[C@@H](Cc1c[nH]cn1)C(=O)N1CCC[C@H]1C(=O)N[C@@H](CC(N)=O)C(=O)NCC(=O)N[C@@H](C)C(=O)N[C@@H](CCC(N)=O)C(=O)N1CCC[C@H]1C(N)=O)C(C)C)[C@@H](C)O [C18-A1, C18-ARLSPTMVHPNGAQP, reference compound] (Stearoyl-ARLSPTMVHPNGAQP-NH2) |  | 195 |  | 365 | 
6 | CCCCCCCCCCCCCCCCCC(=O)N1CCC[C@H]1C(=O)N[C@@H](CCCNC(=N)N)C(=O)N[C@H](C(=O)N[C@@H](CCSC)C(=O)N[C@H](C(N)=O)C(C)C)[C@@H](C)O [C18-s2(4-8), C18-PRTMV] (Stearoyl-PRTMV-NH2) |  | > 100 |  |  | 
7 | CCCCCCCCCCCCCCCCCC(=O)N[C@@H](C)C(=O)N[C@@H](CCCNC(=N)N)C(=O)N[C@@H](CC(C)C)C(=O)N1CCC[C@H]1C(=O)N[C@@H](CCCNC(=N)N)C(=O)N[C@H](C(=O)N[C@@H](CCSC)C(=O)N[C@H](C(N)=O)C(C)C)[C@@H](C)O [C18-s2(1-8), C18-ARLPRTMV] (Stearoyl-ARLPRTMV-NH2) | more strongly than C18-S2 peptide |  | as strongly as, or more strongly than, C18-S2 peptide |  | IC50 [1, 9]: 2.4 µM; IC50 [2, 10]: 1.4 µM
8 | CCCCCCCCCCCCCCCCCC(=O)N[C@@H](C)C(=O)N[C@@H](CCCNC(=N)N)C(=O)N[C@@H](CC(C)C)C(=O)N1CCC[C@H]1C(=O)N[C@@H](CCCNC(=N)N)C(=O)N[C@H](C(=O)N[C@@H](CCSC)C(=O)N[C@H](C(=O)N[C@@H](Cc1c[nH]cn1)C(=O)N1CCC[C@H]1C(=O)N[C@@H](CCCCN)C(=O)N1CCC[C@H]1C(=O)N[C@@H](C)C(=O)N[C@@H](CCC(N)=O)C(=O)N1CCC[C@H]1C(N)=O)C(C)C)[C@@H](C)O [C18-s2, C18-ARLPRTMVHPKPAQP] (Stearoyl-ARLPRTMVHPKPAQP-NH2) |  | 10 |  | 8.2 | 
9 | CCCCCCCCCCCCCCCCCC(=O)N1CCC[C@H]1C(=O)N[C@@H](CC(C)C)C(=O)N[C@@H](CCCNC(=N)N)C(=O)N[C@@H](C)C(N)=O [C18-s2(r1-4), C18-PLRA] (Stearoyl-PLRA-NH2) | more strongly than C18-s2 (r1-8) | 0.41 | more strongly than C18-s2 (r1-8) | 14 | 
10 | CCCCCCCCCCCCCCCCCC(=O)N[C@@H](C)C(=O)N[C@@H](CCCNC(=N)N)C(=O)N[C@@H](CC(C)C)C(=O)N[C@@H](C)C(N)=O [C18-s2(1-4)P4A, C18-ARLA] (Stearoyl-ARLA-NH2) |  | > 100 |  | > 100 | 
11 | CCCCCCCCCCCCCCCCCC(=O)N[C@@H](CCCNC(=N)N)C(=O)N[C@H](C(=O)N[C@@H](CCSC)C(=O)N[C@H](C(=O)N[C@@H](Cc1c[nH]cn1)C(=O)N1CCC[C@H]1C(=O)N[C@@H](CCCCN)C(N)=O)C(C)C)[C@@H](C)O [C18-s2(5-11), C18-RTMVHPK] (Stearoyl-RTMVHPK-NH2) |  | 11 |  | > 100 | 
12 | CCCCCCCCCCCCCCCCCC(=O)N[C@@H](C)C(=O)N[C@@H](CCCNC(=N)N)C(=O)N[C@@H](CC(C)C)C(=O)N1CCC[C@H]1C(=O)N[C@@H](CCCNC(=N)N)C(=O)N[C@H](C(=O)N[C@@H](CCSC)C(N)=O)[C@@H](C)O [C18-s2(1-7), C18-ARLPRTM] (Stearoyl-ARLPRTM-NH2) | more strongly than C18-S2 peptide |  | as strongly as, or more strongly than, C18-S2 peptide |  | IC50 [1, 9]: 7.1 µM; IC50 [2, 10]: 9.1 µM
13 | CCCCCCCCCCCCCCCCCC(=O)N[C@@H](C)C(=O)N[C@@H](CCCNC(=N)N)C(=O)N[C@@H](CC(C)C)C(=O)N1CCC[C@H]1C(=O)N[C@@H](CCCNC(=N)N)C(N)=O [C18-s2(1-5), C18-ARLPR] (Stearoyl-ARLPR-NH2) | more strongly than C18-S2 peptide |  | as strongly as, or more strongly than, C18-S2 peptide |  | IC50 [1, 9]: 3.1 µM; IC50 ([1]; read-out: IC50(μM) H1, Table 5, MDCK cells, plaque assay, H1N1): 0.35 µM; IC50 [2, 10]: 3 µM; IC50 ([2]; read-out: IC50(μM) H3, Table 5, MDCK cells, plaque assay, H3N2): 1.55 µM
14 | CCCCCCCCCCCCCCCCCC(=O)N[C@@H](C)C(=O)N[C@@H](CCCNC(=N)N)C(N)=O [C18-s2(1-2), C18-AR] (Stearoyl-Ala-Arg-NH2) | unable to inhibit infection |  | unable to inhibit infection |  | IC50 [1, 9]: > 100 µM; IC50 [2, 10]: > 100 µM
15 | CCCCCCCCCCCCCCCCCC(=O)N[C@H](C(=O)N[C@@H](Cc1c[nH]cn1)C(=O)N1CCC[C@H]1C(=O)N[C@@H](CCCCN)C(=O)N1CCC[C@H]1C(=O)N[C@@H](C)C(=O)N[C@@H](CCC(N)=O)C(=O)N1CCC[C@H]1C(N)=O)C(C)C [C18-s2(8-15), C18-VHPKPAQP] (Stearoyl-VHPKPAQP-NH2) |  | 59 |  | 10.5 | 
16 | ARLSPTMVHPNGAQP [A-1, ARLSPTMVHPNGAQP-NH2, reference compound] |  |  |  |  | IC50 [4]: 1900 µM; order of binding strength to hemagglutinin [3]: s-2>e-1>A-1>pVIII
17 | CCCCCCCCCCCCCCCCCC(=O)N[C@H](C(=O)N[C@@H](CCSC)C(=O)N[C@H](C(=O)N[C@@H](CCCNC(=N)N)C(=O)N1CCC[C@H]1C(=O)N[C@@H](CC(C)C)C(=O)N[C@@H](CCCNC(=N)N)C(=O)N[C@@H](C)C(N)=O)[C@@H](C)O)C(C)C [C18-s2(r1-8), C18-VMTRPLRA] (Stearoyl-VMTRPLRA-NH2) |  | 93 |  | 226 | 
18 | ARLPRTMVHPKPAQP-NH2 [s-2] |  |  |  |  | binding activity to hemagglutinin relative to A-1 (A-1 taken as 1) [5]: about 3 fold; binding activity to hemagglutinin relative to A-1 (A-1 taken as 1) [6]: about 3 fold; order of binding strength to hemagglutinin [3]: s-2>e-1>A-1>pVIII; relative value of resonance (amount of binding) with A-1 taken as 1 [3]: 2.1 fold
19 | ARLPPTMVRPNGPQP-NH2 [e-1] |  |  |  |  | order of binding strength to hemagglutinin [3]: s-2>e-1>A-1>pVIII; relative value of resonance (amount of binding) with A-1 taken as 1 [3]: 1.2 fold
20 | CCCCCCCCCCCCCCCCCC(=O)N[C@@H](CCCNC(=N)N)C(=O)N[C@@H](CC(C)C)C(=O)N1CCC[C@H]1C(=O)N[C@@H](CCCNC(=N)N)C(=O)N[C@H](C(=O)N[C@@H](CCSC)C(=O)N[C@H](C(N)=O)C(C)C)[C@@H](C)O [C18-s2(2-8), C18-RLPRTMV] (Stearoyl-RLPRTMV-NH2) | as strongly as, or more strongly than, C18-S2 peptide |  |  |  | IC50 [1, 9]: 9.2 µM; IC50 [2, 10]: > 100 µM
21 | CCCCCCCCCCCCCCCCCC(=O)N[C@@H](C)C(=O)N[C@@H](CCCNC(=N)N)C(=O)N[C@@H](CC(C)C)C(=O)N1CCC[C@H]1C(=O)N[C@@H](CCCNC(=N)N)C(=O)N[C@H](C(N)=O)[C@@H](C)O [C18-s2(1-6), C18-ARLPRT] (Stearoyl-ARLPRT-NH2) | more strongly than C18-S2 peptide |  | as strongly as, or more strongly than, C18-S2 peptide |  | IC50 [1, 9]: 3.5 µM; IC50 [2, 10]: 5 µM
22 | CCCCCCCCCCCCCCCCCC(=O)N[C@@H](CC(C)C)C(=O)N1CCC[C@H]1C(=O)N[C@@H](CCCNC(=N)N)C(=O)N[C@H](C(=O)N[C@@H](CCSC)C(=O)N[C@H](C(N)=O)C(C)C)[C@@H](C)O [C18-s2(3-8), C18-LPRTMV] (Stearoyl-LPRTMV-NH2) |  | > 100 |  |  | 
